Results: patent US10766865B2, “PKM2 modulators and methods for their use” (TOLERO PHARMACEUTICALS, INC., priority 2012, dated 2020)

Target: PKM2 (Homo sapiens, UniProt P14618)
Assay: PKM2 Biochemical Assay
Conditions: % maximum response in a biochemical assay as compared with Fructose 1,6-bisphosphate
Experimental: Full length, human PKM2 enzyme was obtained from Promab (Richmond, Calif.). All reagents, unless otherwise noted, were obtained from Sigma (St. Louis, Mo.).
Compounds were pre-incubated with 2 nM PKM2 in reaction buffer (50 mM Tris-HCl, pH 8.0, 200 mM KCl, 30 mM MgCl2, 2 mM DTT, 5% DMSO) for 30 min at ambient temperature. […] After 30 min, ATP formation was measured by Kinase Glo (Promega, Madison, Wis.), and AC50 values were determined using Prism (GraphPad Software, Inc., La Jolla, Calif.).

Chain of PKM2 (P14618 whole entry): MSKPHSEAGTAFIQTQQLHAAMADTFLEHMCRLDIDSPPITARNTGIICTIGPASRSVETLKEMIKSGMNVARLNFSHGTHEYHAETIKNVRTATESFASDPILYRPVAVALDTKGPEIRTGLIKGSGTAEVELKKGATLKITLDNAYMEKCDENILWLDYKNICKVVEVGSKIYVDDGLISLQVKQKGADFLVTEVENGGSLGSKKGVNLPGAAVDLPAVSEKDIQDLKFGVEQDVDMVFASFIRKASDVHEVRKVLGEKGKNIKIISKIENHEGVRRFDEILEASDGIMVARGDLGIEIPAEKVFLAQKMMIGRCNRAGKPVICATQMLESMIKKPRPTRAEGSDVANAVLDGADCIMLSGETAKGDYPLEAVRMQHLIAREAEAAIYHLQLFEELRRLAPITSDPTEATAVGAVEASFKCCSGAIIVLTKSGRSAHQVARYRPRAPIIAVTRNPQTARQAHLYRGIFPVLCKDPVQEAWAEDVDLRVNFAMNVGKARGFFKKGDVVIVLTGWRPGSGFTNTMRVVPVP

CCN(CC)CCN(Cc1ccccc1C(C)C)C(=O)c1cc(C(F)(F)F)n[nH]1 [Example 184, N-(2-isopropylbenzyl)-N-(2-(diethylamino)ethyl)-3-(trifluoromethyl)-1H-pyrazole-5-carboxamide]
Max. Resp.: 85%

CCN(CC)CCCN(Cc1ccccc1Cl)C(=O)c1cc(C(F)(F)F)n[nH]1 [Example 185, N-(2-chlorobenzyl)-N-(3-(diethylamino)propyl)-3-(trifluoromethyl)-1H-pyrazole-5-carboxamide]
Max. Resp.: 53%

CN(C)CCCN(Cc1ccccc1Cl)C(=O)c1cc(C(F)(F)F)n[nH]1 [Example 186, N-(2-chlorobenzyl)-N-(3-(dimethylamino)propyl)-3-(trifluoromethyl)-1H-pyrazole-5-carboxamide]
Max. Resp.: 100%

CN(C)CCN(Cc1ccccc1Cl)C(=O)c1cc(C(F)(F)F)n[nH]1 [Example 187, N-(2-chlorobenzyl)-N-(2-(dimethylamino)ethyl)-3-(trifluoromethyl)-1H-pyrazole-5-carboxamide]
Max. Resp.: 100%

CC1CC(C)CN(CCN(Cc2ccccc2Cl)C(=O)c2cc(C(F)(F)F)n[nH]2)C1 (stereo not drawn) [Example 188, N-(2-chlorobenzyl)-3-(trifluoromethyl)-N-(2-(3,5-dimethylpiperidin-1-yl)ethyl)-1H-pyrazole-5-carboxamide]
Max. Resp.: 60%

O=C(c1cc(C(F)(F)F)n[nH]1)N(CCN1CCCCCC1)Cc1ccccc1Cl [Example 189, N-(2-chlorobenzyl)-N-(2-(azepan-1-yl)ethyl)-3-(trifluoromethyl)-1H-pyrazole-5-carboxamide]
Max. Resp.: 100%

CC1CCN(CCN(Cc2ccccc2Cl)C(=O)c2cc(C(F)(F)F)n[nH]2)CC1 [Example 190, N-(2-chlorobenzyl)-3-(trifluoromethyl)-N-(2-(4-methylpiperidin-1-yl)ethyl)-1H-pyrazole-5-carboxamide]
Max. Resp.: 100%

CC1CCCN(CCN(Cc2ccccc2Cl)C(=O)c2cc(C(F)(F)F)n[nH]2)C1 (stereo not drawn) [Example 191, N-(2-chlorobenzyl)-3-(trifluoromethyl)-N-(2-(3-methylpiperidin-1-yl)ethyl)-1H-pyrazole-5-carboxamide]
Max. Resp.: 100%

CC1CCCCN1CCN(Cc1ccccc1Cl)C(=O)c1cc(C(F)(F)F)n[nH]1 (stereo not drawn) [Example 192, N-(2-chlorobenzyl)-3-(trifluoromethyl)-N-(2-(2-methylpiperidin-1-yl)ethyl)-1H-pyrazole-5-carboxamide]
Max. Resp.: 100%

CCN(CC)CCN(Cc1ccccc1Cl)C(=O)c1[nH]nc(Cl)c1F [Example 193, N-(2-chlorobenzyl)-3-chloro-N-(2-(diethylamino)ethyl)-4-fluoro-1H-pyrazole-5-carboxamide]
Max. Resp.: 58%

O=C(c1cc(C(F)(F)F)n[nH]1)N(CCN1CCCCCC1)Cc1ccc(O)cc1Cl [Example 194, N-(2-chloro-4-hydroxybenzyl)-N-(2-(azepan-1-yl)ethyl)-3-(trifluoromethyl)-1H-pyrazole-5-carboxamide]
Max. Resp.: 100%

O=C(c1cc(C(F)(F)F)n[nH]1)N(CCN1CCCCCC1)Cc1ccc(O)cc1F [Example 195, N-(2-fluoro-4-hydroxybenzyl)-N-(2-(azepan-1-yl)ethyl)-3-(trifluoromethyl)-1H-pyrazole-5-carboxamide]
Max. Resp.: 100%

Nc1ccc(Cl)c(CN(CCN2CCCCCC2)C(=O)c2cc(C(F)(F)F)n[nH]2)c1 [Example 196, N-(5-amino-2-chlorobenzyl)-N-(2-(azepan-1-yl)ethyl)-3-(trifluoromethyl)-1H-pyrazole-5-carboxamide]
Max. Resp.: 100%

O=C(c1cc(C(F)(F)F)n[nH]1)N(CCN1CCCCCC1)Cc1ccccc1F [Example 197, N-(2-fluorobenzyl)-N-(2-(azepan-1-yl)ethyl)-3-(trifluoromethyl)-1H-pyrazole-5-carboxamide]
Max. Resp.: 100%

O=C(c1cc(C(F)(F)F)n[nH]1)N(CCN1CCCCCC1)Cc1c(F)cccc1F [Example 198, N-(2,6-difluorobenzyl)-N-(2-(azepan-1-yl)ethyl)-3-(trifluoromethyl)-1H-pyrazole-5-carboxamide]
Max. Resp.: 100%

CCC1CCN(CCN(Cc2ccccc2Cl)C(=O)c2cc(C(F)(F)F)n[nH]2)CC1 [Example 199, N-(2-chlorobenzyl)-N-(2-(4-ethylpiperidin-1-yl)ethyl)-3-(trifluoromethyl)-1H-pyrazole-5-carboxamide]
Max. Resp.: 100/100%

CC1CCCN(CCN(Cc2cc(N)ccc2Cl)C(=O)c2cc(C(F)(F)F)n[nH]2)C1 (stereo not drawn) [Example 200, N-(5-amino-2-chlorobenzyl)-3-(trifluoromethyl)-N-(2-(3-methylpiperidin-1-yl)ethyl)-1H-pyrazole-5-carboxamide]
Max. Resp.: 100%

CC1CCCN(CCN(Cc2ccccc2F)C(=O)c2cc(C(F)(F)F)n[nH]2)C1 (stereo not drawn) [Example 201, N-(2-fluorobenzyl)-3-(trifluoromethyl)-N-(2-(3-methylpiperidin-1-yl)ethyl)-1H-pyrazole-5-carboxamide]
Max. Resp.: 100%

CC1CCCCN1CCN(Cc1cc(N)ccc1Cl)C(=O)c1cc(C(F)(F)F)n[nH]1 (stereo not drawn) [Example 202, N-(5-amino-2-chlorobenzyl)-3-(trifluoromethyl)-N-(2-(2-methylpiperidin-1-yl)ethyl)-1H-pyrazole-5-carboxamide]
Max. Resp.: 100%

CC1CCCCN1CCN(Cc1ccccc1F)C(=O)c1cc(C(F)(F)F)n[nH]1 (stereo not drawn) [Example 203, N-(2-fluorobenzyl)-3-(trifluoromethyl)-N-(2-(2-methylpiperidin-1-yl)ethyl)-1H-pyrazole-5-carboxamide]
Max. Resp.: 100%

CCN(CCN(Cc1ccccc1Cl)C(=O)c1cc(C(F)(F)F)n[nH]1)C(C)C [Example 204, N-(2-chlorobenzyl)-N-(2-(ethyl-isopropylamino)ethyl)-3-(trifluoromethyl)-1H-pyrazole-5-carboxamide]
Max. Resp.: 53%

O=C(c1cc(C(F)(F)F)n[nH]1)N(CCN1CCC(F)(F)CC1)Cc1ccccc1Cl [Example 205, N-(2-chlorobenzyl)-3-(trifluoromethyl)-N-(2-(4,4-difluoropiperidin-1-yl)ethyl)-1H-pyrazole-5-carboxamide]
Max. Resp.: 100%

O=C(c1cc(C(F)(F)F)n[nH]1)N(CCN1CCCC1)Cc1cccc2[nH]cc(F)c12 [Example 206, N-((3-fluoro-1H-indol-4-yl)methyl)-3-(trifluoromethyl)-N-(2-(pyrrolidin-1-yl)ethyl)-1H-pyrazole-5-carboxamide]
Max. Resp.: 100%

Nc1ccc(CN(CCN2CCCCCC2)C(=O)c2cc(C(F)(F)F)n[nH]2)c(Cl)c1 [Example 207, N-(4-amino-2-chlorobenzyl)-N-(2-(azepan-1-yl)ethyl)-3-(trifluoromethyl)-1H-pyrazole-5-carboxamide]
Max. Resp.: 75%

O=C(c1cc(C(F)(F)F)n[nH]1)N(CCN1CCCCCC1)Cc1cccc2nc[nH]c12 [Example 208, N-((1H-benzo[d]imidazol-7-yl)methyl)-N-(2-(azepan-1-yl)ethyl)-3-(trifluoromethyl)-1H-pyrazole-5-carboxamide]
Max. Resp.: 100%

CCCN(CC)CCN(Cc1ccccc1Cl)C(=O)c1cc(C(F)(F)F)n[nH]1 [Example 209, N-(2-chlorobenzyl)-N-(2-(ethyl-propylamino)ethyl)-3-(trifluoromethyl)-1H-pyrazole-5-carboxamide]
Max. Resp.: 100%

O=C(c1cc(C(F)(F)F)n[nH]1)N(CCN1CCCCCC1)Cc1cccc([N+](=O)[O-])c1Cl [Example 210, N-(2-chloro-3-nitrobenzyl)-N-(2-(azepan-1-yl)ethyl)-3-(trifluoromethyl)-1H-pyrazole-5-carboxamide]
Max. Resp.: 100%

O=C(c1cc(C(F)(F)F)n[nH]1)N(CCN1CCCCCC1)Cc1c(Cl)cccc1[N+](=O)[O-] [Example 211, N-(2-chloro-6-nitrobenzyl)-N-(2-(azepan-1-yl)ethyl)-3-(trifluoromethyl)-1H-pyrazole-5-carboxamide]
Max. Resp.: 100%

CC1CCCC(C)N1CCN(Cc1ccccc1Cl)C(=O)c1cc(C(F)(F)F)n[nH]1 (stereo not drawn) [Example 212, N-(2-chlorobenzyl)-3-(trifluoromethyl)-N-(2-(2,6-dimethylpiperidin-1-yl)ethyl)-1H-pyrazole-5-carboxamide]
Max. Resp.: 53%

Nc1cccc(CN(CCN2CCCCCC2)C(=O)c2cc(C(F)(F)F)n[nH]2)c1Cl [Example 213, N-(3-amino-2-chlorobenzyl)-N-(2-(azepan-1-yl)ethyl)-3-(trifluoromethyl)-1H-pyrazole-5-carboxamide]
Max. Resp.: 100%

Nc1ccc(F)c(CN(CCN2CCCCCC2)C(=O)c2cc(C(F)(F)F)n[nH]2)c1 [Example 214, N-(5-amino-2-fluorobenzyl)-N-(2-(azepan-1-yl)ethyl)-3-(trifluoromethyl)-1H-pyrazole-5-carboxamide]
Max. Resp.: 100%

COc1ccc(N)cc1CN(CCN1CCCCCC1)C(=O)c1cc(C(F)(F)F)n[nH]1 [Example 215, N-(5-amino-2-methoxybenzyl)-N-(2-(azepan-1-yl)ethyl)-3-(trifluoromethyl)-1H-pyrazole-5-carboxamide]
Max. Resp.: 100%

Nc1cccc(CN(CCN2CCCCCC2)C(=O)c2cc(C(F)(F)F)n[nH]2)c1F [Example 216, N-(3-amino-2-fluorobenzyl)-N-(2-(azepan-1-yl)ethyl)-3-(trifluoromethyl)-1H-pyrazole-5-carboxamide]
Max. Resp.: 100%

COc1c(N)cccc1CN(CCN1CCCCCC1)C(=O)c1cc(C(F)(F)F)n[nH]1 [Example 217, N-(3-amino-2-methoxybenzyl)-N-(2-(azepan-1-yl)ethyl)-3-(trifluoromethyl)-1H-pyrazole-5-carboxamide]
Max. Resp.: 100%

Nc1cccc(Cl)c1CN(CCN1CCCCCC1)C(=O)c1cc(C(F)(F)F)n[nH]1 [Example 218, N-(2-amino-6-chlorobenzyl)-N-(2-(azepan-1-yl)ethyl)-3-(trifluoromethyl)-1H-pyrazole-5-carboxamide]
Max. Resp.: 100%

O=C(c1cc(C(F)(F)F)n[nH]1)N(CCN1CCC(O)CC1)Cc1ccccc1Cl [Example 219, N-(2-chlorobenzyl)-3-(trifluoromethyl)-N-(2-(4-hydroxypiperidin-1-yl)ethyl)-1H-pyrazole-5-carboxamide]
Max. Resp.: 100%
